Columns and labels:
Type in all cases: cell-based
K-562 = experiment: SRB colorimetric cell growth inhibition assay, K-562; details: Homo sapiens, K562, K-562; for GI50: GI=growth inhibition, read-out: GI50 K-562; for CC50: cell killing (cytotoxic effect), read-out: LC50 K-562; for IC (TGI): total growth inhibition (cytostatic effect), read-out: TGI K-562
Method in brief: (§1)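 Tested samples remained on human cancer cell cultures throughout the incubation; viable biomass was then stained with SRB and read colorimetrically.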

A-549 = experiment: SRB colorimetric cell growth inhibition assay, A-549; details: Homo sapiens, A549, A-549; for GI50: GI=growth inhibition, read-out: GI50 A-549; for CC50: cell killing (cytotoxic effect), read-out: LC50 A-549; for IC (TGI): total growth inhibition (cytostatic effect), read-out: TGI A-549
Method in brief: as §1

SK-MEL-28 = experiment: SRB colorimetric cell growth inhibition assay, SK-MEL-28; details: Homo sapiens, SK-MEL-28, MEL-28; for GI50: GI=growth inhibition, read-out: GI50 MEL-28; for CC50: LC=cell killing (cytotoxic effect), read-out: LC50 MEL-28; for IC (TGI): TGI=total growth inhibition (cytostatic effect), read-out: TGI MEL-28
Method in brief: as §1

HT-29 = experiment: SRB colorimetric cell growth inhibition assay, HT-29; details: Homo sapiens, HT-29, HT-29; for GI50: GI=growth inhibition, read-out: GI50 HT-29; for CC50: cell killing (cytotoxic effect), read-out: LC50 HT-29; for IC (TGI): total growth inhibition (cytostatic effect), read-out: TGI HT-29
Method in brief: as §1

LoVo = experiment: SRB colorimetric cell growth inhibition assay, LoVo; details: Homo sapiens, LoVo; for GI50: GI=growth inhibition, read-out: GI50 LOVO; for CC50: cell killing (cytotoxic effect), read-out: LC50 LOVO; for IC (TGI): total growth inhibition (cytostatic effect), read-out: TGI LOVO
Method in brief: as §1

LoVo-Dox = experiment: SRB colorimetric cell growth inhibition assay, LoVo-Dox (MDR); details: Homo sapiens, LOVO-DOX; for GI50: GI=growth inhibition, read-out: GI50 LOVO-DOX; for CC50: cell killing (cytotoxic effect), read-out: LC50 LOVO-DOX; for IC (TGI): total growth inhibition (cytostatic effect), read-out: TGI LOVO-DOX
Method in brief: as §1

DU-145 = experiment: SRB colorimetric cell growth inhibition assay, DU-145; details: Homo sapiens, DU-145, DU-145; for GI50: GI=growth inhibition, read-out: GI50 DU-145; for CC50: LC=cell killing (cytotoxic effect), read-out: LC50 DU-145; for IC (TGI): TGI=total growth inhibition (cytostatic effect), read-out: TGI DU-145
Method in brief: as §1

LNCaP = experiment: SRB colorimetric cell growth inhibition assay, LNCaP; details: Homo sapiens, LNCaP, LN-caP; for GI50: GI=growth inhibition, read-out: GI50 LN-caP; for CC50: LC=cell killing (cytotoxic effect), read-out: LC50 LN-caP; for IC (TGI): TGI=total growth inhibition (cytostatic effect), read-out: TGI LN-caP
Method in brief: as §1

SK-BR-3 = experiment: SRB colorimetric cell growth inhibition assay, SK-BR-3; details: Homo sapiens, SK-BR-3, SK-BR-3; for GI50: GI=growth inhibition, read-out: GI50 SK-BR-3; for CC50: LC=cell killing (cytotoxic effect), read-out: LC50 SK-BR-3; for IC (TGI): TGI=total growth inhibition (cytostatic effect), read-out: TGI SK-BR-3
Method in brief: as §1

IGROV = experiment: SRB colorimetric cell growth inhibition assay, IGROV; details: Homo sapiens, IGROV; for GI50: GI=growth inhibition, read-out: GI50 IGROV; for CC50: LC=cell killing (cytotoxic effect), read-out: LC50 IGROV; for IC (TGI): TGI=total growth inhibition (cytostatic effect), read-out: TGI IGROV
Method in brief: as §1

IGROV-ET = experiment: SRB colorimetric cell growth inhibition assay, IGROV-ET (ET-743 resistant); details: Homo sapiens, IGROV-ET; for GI50: GI=growth inhibition, read-out: GI50 IGROV-ET; for CC50: LC=cell killing (cytotoxic effect), read-out: LC50 IGROV-ET; for IC (TGI): TGI=total growth inhibition (cytostatic effect), read-out: TGI IGROV-ET
Method in brief: as §1

PANC-1 = experiment: SRB colorimetric cell growth inhibition assay, PANC-1; details: Homo sapiens, PANC-1, PANC-1; for GI50: GI=growth inhibition, read-out: GI50 PANC-1; for CC50: cell killing (cytotoxic effect), read-out: LC50 PANC-1; for IC (TGI): total growth inhibition (cytostatic effect), read-out: TGI PANC-1
Method in brief: as §1

SKOV-3 = experiment: SRB colorimetric cell growth inhibition assay, SKOV-3; details: Homo sapiens; for GI50: SK-OV-3, SKOV-3, GI=growth inhibition, read-out: GI50 SKOV-3; for CC50 / IC (TGI): SK-OV-3, SKOV-3; for CC50: LC=cell killing (cytotoxic effect), read-out: LC50 SKOV-3; for IC (TGI): TGI=total growth inhibition (cytostatic effect), read-out: TGI SKOV-3
Method in brief: (§2)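 Growth and viability quantified by sulforhodamine B staining in 96-well microplates. Triplicate wells give mean ± SD; derived endpoints are GI, TGI (cytostatic) and LC (cytotoxic).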

[1] = SRB colorimetric cell growth inhibition assay, H-MEC-1; details: human, H-MEC-1 cells, H-MEC-1; LC=cell killing (cytotoxic effect); read-out: LC50 H-MEC-1
Method in brief: as §2

H-MEC-1 = experiment: as above; details: Homo sapiens, HMEC-1, H-MEC-1; for GI50: GI=growth inhibition; for IC (TGI): TGI=total growth inhibition (cytostatic effect), read-out: TGI H-MEC-1
Method in brief: as §2

SMILES: COc1cc(-c2c3n(c4c(=O)oc5cc(OC(=O)c6cc(F)c(F)c(F)c6F)c(OC)cc5c24)CCc2c-3cc(OC)c(OC)c2OC(=O)c2cc(F)c(F)c(F)c2F)ccc1OC(=O)c1cc(F)c(F)c(F)c1F [Compound 99]
- GI50 (K-562): 0.972 µM
- CC50 (K-562): 2.26 µM
- IC (TGI) (K-562): 1.48 µM
- GI50 (A-549): 9.44 µM
- CC50 (A-549): 9.44 µM
- IC (TGI) (A-549): 9.44 µM
- GI50 (SK-MEL-28): 9.44 µM
- CC50 (SK-MEL-28): 9.44 µM
- IC (TGI) (SK-MEL-28): 9.44 µM
- GI50 (HT-29): 9.44 µM
- CC50 (HT-29): 9.44 µM
- IC (TGI) (HT-29): 9.44 µM
- GI50 (LoVo): 9.44 µM
- CC50 (LoVo): 9.44 µM
- IC (TGI) (LoVo): 9.44 µM
- GI50 (LoVo-Dox): 9.44 µM
- CC50 (LoVo-Dox): 9.44 µM
- IC (TGI) (LoVo-Dox): 9.44 µM
- GI50 (DU-145): 9.44 µM
- CC50 (DU-145): 9.44 µM
- IC (TGI) (DU-145): 9.44 µM
- GI50 (LNCaP): 4.46 µM
- CC50 (LNCaP): 9.44 µM
- IC (TGI) (LNCaP): 8.19 µM
- GI50 (SK-BR-3): 9.44 µM
- CC50 (SK-BR-3): 9.44 µM
- IC (TGI) (SK-BR-3): 9.44 µM
- GI50 (IGROV): 3.07 µM
- CC50 (IGROV): 9.44 µM
- IC (TGI) (IGROV): 9.44 µM
- GI50 (IGROV-ET): 9.44 µM
- CC50 (IGROV-ET): 9.44 µM
- IC (TGI) (IGROV-ET): 9.44 µM
- GI50 (PANC-1): 9.44 µM
- CC50 (PANC-1): 9.44 µM
- IC (TGI) (PANC-1): 9.44 µM
- GI50 (SKOV-3): 9.44 µM
- CC50 (SKOV-3): 9.44 µM
- IC (TGI) (SKOV-3): 9.44 µM
- CC50 [1]: 7.42 µM
- GI50 (H-MEC-1): 4.06 µM
- IC (TGI) (H-MEC-1): 5.48 µM

SMILES: COc1cc(-c2c3c4cc(OC)c(OC(C)C)cc4oc(=O)c3n3ccc4c(OC(C)C)c(OC)c(OC)c(COS(C)(=O)=O)c4c23)ccc1OC(C)C [Compound 101]
- GI50 (K-562): 2.19 µM
- CC50 (K-562): 5.73 µM
- IC (TGI) (K-562): 3.53 µM
- GI50 (A-549): 13.1 µM
- CC50 (A-549): 13.1 µM
- IC (TGI) (A-549): 13.1 µM
- GI50 (SK-MEL-28): 13.1 µM
- CC50 (SK-MEL-28): 13.1 µM
- IC (TGI) (SK-MEL-28): 13.1 µM
- GI50 (HT-29): 13.1 µM
- CC50 (HT-29): 13.1 µM
- IC (TGI) (HT-29): 13.1 µM
- GI50 (LoVo): 13.1 µM
- CC50 (LoVo): 13.1 µM
- IC (TGI) (LoVo): 13.1 µM
- GI50 (LoVo-Dox): 13.1 µM
- CC50 (LoVo-Dox): 13.1 µM
- IC (TGI) (LoVo-Dox): 13.1 µM
- GI50 (DU-145): 13.1 µM
- CC50 (DU-145): 13.1 µM
- IC (TGI) (DU-145): 13.1 µM
- GI50 (LNCaP): 8.25 µM
- CC50 (LNCaP): 13.1 µM
- IC (TGI) (LNCaP): 13.1 µM
- GI50 (SK-BR-3): 13.1 µM
- CC50 (SK-BR-3): 13.1 µM
- IC (TGI) (SK-BR-3): 13.1 µM
- GI50 (IGROV): 11.9 µM
- CC50 (IGROV): 13.1 µM
- IC (TGI) (IGROV): 13.1 µM
- GI50 (IGROV-ET): 13.1 µM
- CC50 (IGROV-ET): 13.1 µM
- IC (TGI) (IGROV-ET): 13.1 µM
- GI50 (PANC-1): 13.1 µM
- CC50 (PANC-1): 13.1 µM
- IC (TGI) (PANC-1): 13.1 µM
- GI50 (SKOV-3): 0.791 µM
- CC50 (SKOV-3): 5.71 µM
- IC (TGI) (SKOV-3): 2.34 µM
- CC50 [1]: 10.5 µM
- GI50 (H-MEC-1): 4.66 µM
- IC (TGI) (H-MEC-1): 6.99 µM
